Measured values reported in PubChem BioAssay (NCI).
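Five compound concentrations were applied to cells in 96-well plates for 48 hours; endpoints were derived by simple linear interpolation of the resulting dose-response curve. Here, GI50 denotes the concentration required for 50% inhibition of growth. TGI: total growth inhibition.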

Experiments:
Test in all cases: NCI anticancer screen, dose series, 48 h
786-0 renal = test system: 786-0 renal
A498 renal = test system: A498 renal
A549 NSCLC = test system: A549 NSCLC
ACHN renal = test system: ACHN renal
BT-549 breast = test system: BT-549 breast
CAKI-1 renal = test system: CAKI-1 renal
CCRF-CEM leukemia = test system: CCRF-CEM leukemia
COLO 205 colon = test system: COLO 205 colon
DU-145 prostate = test system: DU-145 prostate
EKVX NSCLC = test system: EKVX NSCLC
HCC-2998 colon = test system: HCC-2998 colon
HCT-116 colon = test system: HCT-116 colon
HCT-15 colon = test system: HCT-15 colon
HL-60(TB) leukemia = test system: HL-60(TB) leukemia
HOP-62 NSCLC = test system: HOP-62 NSCLC
HOP-92 NSCLC = test system: HOP-92 NSCLC
HS 578T breast = test system: HS 578T breast
HT29 colon = test system: HT29 colon
IGROV1 ovarian = test system: IGROV1 ovarian
K-562 leukemia = test system: K-562 leukemia
KM12 colon = test system: KM12 colon
LOX IMVI melanoma = test system: LOX IMVI melanoma
M14 melanoma = test system: M14 melanoma
MALME-3M melanoma = test system: MALME-3M melanoma
MCF7 breast = test system: MCF7 breast
MDA-MB-231 breast = test system: MDA-MB-231 breast
MDA-MB-435 = test system: MDA-MB-435
MOLT-4 leukemia = test system: MOLT-4 leukemia
NCI-H226 lung = test system: NCI-H226 lung
NCI-H23 lung = test system: NCI-H23 lung
NCI-H460 lung = test system: NCI-H460 lung
NCI-H522 lung = test system: NCI-H522 lung
NCI/ADR-RES ovarian = test system: NCI/ADR-RES ovarian
OVCAR-3 ovarian = test system: OVCAR-3 ovarian
OVCAR-4 ovarian = test system: OVCAR-4 ovarian
OVCAR-5 ovarian = test system: OVCAR-5 ovarian
OVCAR-8 ovarian = test system: OVCAR-8 ovarian
PC-3 prostate = test system: PC-3 prostate
RPMI-8226 leukemia = test system: RPMI-8226 leukemia
RXF 393 renal = test system: RXF 393 renal
SF-268 CNS = test system: SF-268 CNS
SF-295 CNS = test system: SF-295 CNS
SF-539 CNS = test system: SF-539 CNS
SK-MEL-2 melanoma = test system: SK-MEL-2 melanoma
SK-MEL-28 melanoma = test system: SK-MEL-28 melanoma
SK-MEL-5 melanoma = test system: SK-MEL-5 melanoma
SK-OV-3 ovarian = test system: SK-OV-3 ovarian
SN12C renal = test system: SN12C renal
SNB-19 CNS = test system: SNB-19 CNS
SNB-75 CNS = test system: SNB-75 CNS
SW-620 colon = test system: SW-620 colon
T-47D breast = test system: T-47D breast
TK-10 renal = test system: TK-10 renal
U251 CNS = test system: U251 CNS
UACC-257 melanoma = test system: UACC-257 melanoma
UACC-62 melanoma = test system: UACC-62 melanoma
UO-31 renal = test system: UO-31 renal

Question: For Cc1ccc(C(CC(=O)c2ccccc2)C(C(=O)c2ccccc2)C(c2ccc(C)cc2)C2C(=O)NC(=S)NC2=O)cc1 (centres undefined), which GI50 (786-0 renal) is on record?
Answer: 26.2 µM

Question: What about the TGI (786-0 renal) of the same molecule?
Answer: > 50 µM

Question: What about the GI50 (A498 renal) of the same molecule?
Answer: 18.3 µM

Question: And the TGI (A498 renal)?
Answer: > 50 µM

Question: What about the GI50 (A549 NSCLC) of the same molecule?
Answer: 12.8 µM

Question: What about the TGI (A549 NSCLC) of the same molecule?
Answer: > 50 µM

Question: And the GI50 (ACHN renal)?
Answer: 11.3 µM

Question: What about the TGI (ACHN renal) of the same molecule?
Answer: > 50 µM

Question: What about the GI50 (BT-549 breast) of the same molecule?
Answer: 31.7 µM

Question: What about the TGI (BT-549 breast) of the same molecule?
Answer: > 50 µM

Question: What about the GI50 (CAKI-1 renal) of the same molecule?
Answer: 7.7 µM

Question: And the TGI (CAKI-1 renal)?
Answer: 35 µM

Question: And the GI50 (CCRF-CEM leukemia)?
Answer: 15.8 µM

Question: And the TGI (CCRF-CEM leukemia)?
Answer: > 50 µM

Question: What about the GI50 (COLO 205 colon) of the same molecule?
Answer: 8.45 µM

Question: And the TGI (COLO 205 colon)?
Answer: 24.5 µM

Question: What about the GI50 (DU-145 prostate) of the same molecule?
Answer: 18.5 µM

Question: And the TGI (DU-145 prostate)?
Answer: > 50 µM

Question: What about the GI50 (EKVX NSCLC) of the same molecule?
Answer: 19.5 µM

Question: What about the TGI (EKVX NSCLC) of the same molecule?
Answer: > 50 µM

Question: And the GI50 (HCC-2998 colon)?
Answer: 8.68 µM

Question: What about the TGI (HCC-2998 colon) of the same molecule?
Answer: > 50 µM

Question: What about the GI50 (HCT-116 colon) of the same molecule?
Answer: 19 µM

Question: What about the TGI (HCT-116 colon) of the same molecule?
Answer: > 50 µM

Question: What about the GI50 (HCT-15 colon) of the same molecule?
Answer: 17 µM

Question: And the TGI (HCT-15 colon)?
Answer: > 50 µM

Question: What about the GI50 (HL-60(TB) leukemia) of the same molecule?
Answer: 18.7 µM

Question: What about the TGI (HL-60(TB) leukemia) of the same molecule?
Answer: > 50 µM

Question: And the GI50 (HOP-62 NSCLC)?
Answer: > 50 µM

Question: What about the TGI (HOP-62 NSCLC) of the same molecule?
Answer: > 50 µM

Question: What about the GI50 (HOP-92 NSCLC) of the same molecule?
Answer: 11 µM

Question: What about the TGI (HOP-92 NSCLC) of the same molecule?
Answer: > 50 µM

Question: What about the GI50 (HS 578T breast) of the same molecule?
Answer: 21.7 µM

Question: And the TGI (HS 578T breast)?
Answer: > 50 µM

Question: And the GI50 (HT29 colon)?
Answer: 28.1 µM

Question: And the TGI (HT29 colon)?
Answer: > 50 µM

Question: What about the GI50 (IGROV1 ovarian) of the same molecule?
Answer: 19.2 µM

Question: And the TGI (IGROV1 ovarian)?
Answer: > 50 µM

Question: And the GI50 (K-562 leukemia)?
Answer: 26.7 µM

Question: What about the TGI (K-562 leukemia) of the same molecule?
Answer: > 50 µM

Question: And the GI50 (KM12 colon)?
Answer: 15 µM

Question: What about the TGI (KM12 colon) of the same molecule?
Answer: > 50 µM

Question: And the GI50 (LOX IMVI melanoma)?
Answer: 17 µM

Question: And the TGI (LOX IMVI melanoma)?
Answer: > 50 µM

Question: What about the GI50 (M14 melanoma) of the same molecule?
Answer: 27.2 µM

Question: What about the TGI (M14 melanoma) of the same molecule?
Answer: > 50 µM

Question: What about the GI50 (MALME-3M melanoma) of the same molecule?
Answer: 15.1 µM

Question: And the TGI (MALME-3M melanoma)?
Answer: > 50 µM

Question: What about the GI50 (MCF7 breast) of the same molecule?
Answer: 10.6 µM

Question: What about the TGI (MCF7 breast) of the same molecule?
Answer: > 50 µM

Question: What about the GI50 (MDA-MB-231 breast) of the same molecule?
Answer: 9.5 µM

Question: What about the TGI (MDA-MB-231 breast) of the same molecule?
Answer: > 50 µM

Question: And the GI50 (MDA-MB-435)?
Answer: 14.6 µM

Question: What about the TGI (MDA-MB-435) of the same molecule?
Answer: > 50 µM

Question: What about the GI50 (MOLT-4 leukemia) of the same molecule?
Answer: 8.85 µM

Question: And the TGI (MOLT-4 leukemia)?
Answer: > 50 µM

Question: What about the GI50 (NCI-H226 lung) of the same molecule?
Answer: 14.9 µM

Question: What about the TGI (NCI-H226 lung) of the same molecule?
Answer: > 50 µM

Question: And the GI50 (NCI-H23 lung)?
Answer: 15.1 µM

Question: What about the TGI (NCI-H23 lung) of the same molecule?
Answer: > 50 µM

Question: And the GI50 (NCI-H460 lung)?
Answer: 6.66 µM

Question: What about the TGI (NCI-H460 lung) of the same molecule?
Answer: > 50 µM

Question: What about the GI50 (NCI-H522 lung) of the same molecule?
Answer: 7.87 µM

Question: What about the TGI (NCI-H522 lung) of the same molecule?
Answer: 30.2 µM

Question: What about the GI50 (NCI/ADR-RES ovarian) of the same molecule?
Answer: 8.05 µM

Question: And the TGI (NCI/ADR-RES ovarian)?
Answer: > 50 µM

Question: What about the GI50 (OVCAR-3 ovarian) of the same molecule?
Answer: 19 µM

Question: And the TGI (OVCAR-3 ovarian)?
Answer: > 50 µM

Question: What about the GI50 (OVCAR-4 ovarian) of the same molecule?
Answer: > 50 µM

Question: What about the TGI (OVCAR-4 ovarian) of the same molecule?
Answer: > 50 µM

Question: And the GI50 (OVCAR-5 ovarian)?
Answer: 31 µM

Question: What about the TGI (OVCAR-5 ovarian) of the same molecule?
Answer: > 50 µM

Question: What about the GI50 (OVCAR-8 ovarian) of the same molecule?
Answer: 16.9 µM

Question: And the TGI (OVCAR-8 ovarian)?
Answer: > 50 µM

Question: And the GI50 (PC-3 prostate)?
Answer: 10.4 µM

Question: What about the TGI (PC-3 prostate) of the same molecule?
Answer: > 50 µM

Question: What about the GI50 (RPMI-8226 leukemia) of the same molecule?
Answer: 44.2 µM

Question: What about the TGI (RPMI-8226 leukemia) of the same molecule?
Answer: > 50 µM

Question: And the GI50 (RXF 393 renal)?
Answer: 30.3 µM

Question: What about the TGI (RXF 393 renal) of the same molecule?
Answer: > 50 µM

Question: And the GI50 (SF-268 CNS)?
Answer: 16.8 µM

Question: What about the TGI (SF-268 CNS) of the same molecule?
Answer: > 50 µM

Question: And the GI50 (SF-295 CNS)?
Answer: 12.2 µM

Question: And the TGI (SF-295 CNS)?
Answer: > 50 µM

Question: What about the GI50 (SF-539 CNS) of the same molecule?
Answer: 28.9 µM

Question: What about the TGI (SF-539 CNS) of the same molecule?
Answer: > 50 µM

Question: And the GI50 (SK-MEL-2 melanoma)?
Answer: 7.96 µM

Question: What about the TGI (SK-MEL-2 melanoma) of the same molecule?
Answer: > 50 µM

Question: What about the GI50 (SK-MEL-28 melanoma) of the same molecule?
Answer: > 50 µM

Question: And the TGI (SK-MEL-28 melanoma)?
Answer: > 50 µM

Question: And the GI50 (SK-MEL-5 melanoma)?
Answer: 10.6 µM

Question: And the TGI (SK-MEL-5 melanoma)?
Answer: > 50 µM

Question: And the GI50 (SK-OV-3 ovarian)?
Answer: > 50 µM

Question: What about the TGI (SK-OV-3 ovarian) of the same molecule?
Answer: > 50 µM

Question: And the GI50 (SN12C renal)?
Answer: 25.1 µM

Question: And the TGI (SN12C renal)?
Answer: > 50 µM

Question: What about the GI50 (SNB-19 CNS) of the same molecule?
Answer: 25.1 µM

Question: And the TGI (SNB-19 CNS)?
Answer: > 50 µM

Question: What about the GI50 (SNB-75 CNS) of the same molecule?
Answer: > 50 µM

Question: And the TGI (SNB-75 CNS)?
Answer: > 50 µM

Question: And the GI50 (SW-620 colon)?
Answer: 19.4 µM

Question: What about the TGI (SW-620 colon) of the same molecule?
Answer: > 50 µM

Question: What about the GI50 (T-47D breast) of the same molecule?
Answer: 5.78 µM

Question: And the TGI (T-47D breast)?
Answer: > 50 µM

Question: And the GI50 (TK-10 renal)?
Answer: 20.6 µM

Question: And the TGI (TK-10 renal)?
Answer: > 50 µM

Question: And the GI50 (U251 CNS)?
Answer: 16.3 µM

Question: What about the TGI (U251 CNS) of the same molecule?
Answer: > 50 µM

Question: And the GI50 (UACC-257 melanoma)?
Answer: 13.4 µM

Question: What about the TGI (UACC-257 melanoma) of the same molecule?
Answer: > 50 µM

Question: And the GI50 (UACC-62 melanoma)?
Answer: 19.5 µM

Question: And the TGI (UACC-62 melanoma)?
Answer: > 50 µM

Question: And the GI50 (UO-31 renal)?
Answer: 6.93 µM

Question: And the TGI (UO-31 renal)?
Answer: 29.3 µM
